In patent US5461061A, “Centrally acting 6,7,8,9-tetrahydro-3H-benz(E)indole heterocyclics” (priority 1993, dated 1995):
Counter-ions that a name gives are not always drawn. Like-named read-outs stand apart in the source and are kept apart here.

Key:
[1] = Blood pressure, heart rate and rectal temperature in awake normotensive rats (#); format: in vivo, rat (normotensive Sprague-Dawley); settings: 0.2 μmol/kg i.v.
Method: (§1) The male spontaneously hypertensive rats (SHR), or normotensive Sprague-Dawley rats # were implanted wit catheters in the arteria carotis and vena jugularis. The blood pressure (BP), heart rate (HR) and rectal temperature were recorded 24 hours later in the awake rat after per oral (p.o.) or intravenous *i.v.) administration of test drugs. Recording time was at least 90 minutes. Shown are the maximal effects during the 90 min recording period expressed as the deviation from baseline values (SHR:BP; 174±6 mmHG, HR; 366±10 beats/min, RT; 38.7±0.15 C and normotensives: BP; 111±3 mmHG, HR; 369±15 beats/min, RT; 38.7±0.23 C, means ±SEM, n=7) (means ±SEM, n=3-4). In case of a biphasic response (heart rate) during the 90 min, both maximal and minimal levels are shown period. The bioavailability calculations were based on the areas under the curves after po and iv administration.
(§2) *denotes statistical significant difference (p<0.05, or less) compared to saline treated controls (ANOVA followed by Fischer's test).

[2] = tested on: central 5-HT receptor (5-HTP accumulation in the limbic forebrain); test: In vivo rat brain tryptophan hydroxylation (5-HTP accumulation, limbic forebrain) after reserpine pretreatment and NSD 1015; settings: reserpine-pretreated rats, read-out: 5-HTP ED50 (limb)
Method: (§3) In vivo determination of a rat brain tyrosine and tryptophan hydroxylation after reserpine pretreatment (biochemically monitored dopamine and 5-HT receptor activity).
(§4) The compounds under evaluation were tested biochemically for central dopamine and 5-HT receptor (pre- and/or post-synaptic) stimulating activity. The concept of this biochemical screening method is that a dopamine or 5-HT-receptor agonist will stimulate the receptor and through regulatory feedback systems effect a decline in tyrosine or tryptophan hydroxylating activity, respectively, and a subsequent reduction in the synthesis rate for dopamine and 5-HT in the presynaptic neuron. Dopa and 5-HTP formation, as determined after in vivo inhibition of the aromatic L-amino acid decarboxylase with NSD 1015 (3-hydroxybenzylhydrazine hydrochloride) are taken as indirect measures of dopamine and 5-HT synthesis rates, respectively as described by Wikstrom et al., J. Med. Chem., 27, 1030, 1984.
(§5) Rats (150-300 g) pretreated with reserpine (5 mg/kg, 18 hours before) were given the test compounds. Gross behavioral observations (changes in motility, hindleg abduction, etc.) were made. Subsequent administration of NSD 1015, decapitation, brain dissection (corpora striata, the limbic forebrain and the remaining hemispheral portions (mainly cortex) or rat brain), homogenization, centrifugation, ion-exchange chromatography and spectrofluorimetric measurements (all as described in detail by Wikstrom, et al., M. Med. Chem., 21, 864-867, 1978 and reference cited therein), or by HPLC/EC, gave the actual […] and 5-HTP levels. Several doses (n=4-6) were tested for each compound and brain area. The dose of a compound giving 50% of the maximal reduction of the 5-HTP level in the rat brain part was then estimated.
(§6) "+" indicates a motoric activation of the animals.

[3] = tested on: motor activity / gross behavior (DA or 5-HT behavioral syndrome); test: Motor activity and gross behavior in reserpine-pretreated rats; format: in vivo, rat
Excerpt: Antagonism of the reserpine-induced "neuroleptic syndrome" in the rat (gross behavior)
Depletion of the monoamine stores with reserpine brings about a "neuroleptic syndrome" characterized by hypomotility, catalepsy, muscle rigidity, hunch-backed posture as well as a number of other central and peripheral signs of monoamine depletion. The whole or parts of this syndrome can be reversed by the administration of drugs that stimulate dopamine or 5-HT receptors directly or indirectly.
Stimulation of the dopamine receptors, with apomorphine for example, gives rise to both locomotion and stereotyped behavior such as sniffing, gnawing and jumping. On the other hand, stimulation of the 5-HT receptors, with 5-hydroxytryptophan (5-HTP) combined with MAO-inhibitors for example, gives rise to a very different behavior.
as §5, §6

[4] = tested on: central dopamine receptor (DOPA accumulation in the striatum); test: In vivo rat brain tyrosine hydroxylation (DOPA accumulation, striatum) after reserpine pretreatment and NSD 1015; settings: sc, reserpine-pretreated rats, bracket = highest dose tested, read-out: Dopa ED50 (stri)
Method: as §3, §4
Rats (150-300 g) pretreated with reserpine (5 mg/kg, 18 hours before) were given the test compounds. Gross behavioral observations (changes in motility, hindleg abduction, etc.) were made. […]

[5] = Stability remark on isolated product; format: physicochemical
[6] = tested on: dopamine receptors; settings: cited from earlier work
[7] = molecular target: noradrenaline (NA) (α2) receptor; test: In vitro binding, brain noradrenaline alpha2 receptor sites; parameters: species or system rat; settings: non-pretreated rats
[8] = Blood pressure, heart rate and rectal temperature in awake spontaneously hypertensive rats (SHR); format: in vivo, rat (spontaneously hypertensive; settings: for Δtemp max: rectal; for bioavailability: rat, in vivo
Method: as §1, §2

[9] = tested on: central DA receptor; settings: cited from earlier work
[10] = tested on: 5-HT1A sites; settings: 3H-8-OH-DPAT, rat brain homogenates; cited from earlier work
[11] = tested on: 5-HT1A; settings: cited from earlier work
[12] = sc, bracket = highest dose tested
[13] = 2.0 μmol/kg i.v., (±) 13a / (±) 13b
[14] = 2.0 μmol/kg i.v., second printed (±) 13a line (biphasic, maximal level) / first printed (±) 13b line
[15] = 10.0 μmol/kg i.v., first printed (±) 13a line, no # printed
[16] = 10.0 μmol/kg i.v., second printed (±) 13a line
[17] = 10.0 μmol/kg p.o., (±) 13a (biphasic, maximal level) / first printed (±) 13b line
[18] = 10.0 μmol/kg p.o., (±) 13a / first (±) 13b

SMILES: CCCN(CCC)C1CCc2cccc(O)c2C1 (racemic) [Compound 8-OH-DPAT, reference compound]
- ΔBP max [1]: -12 ± 6 mm Hg
- ΔHR max [1]: -83 ± 16 beats/min
- Δtemp max ([1]; rectal): -1.5 ± 0.27 °C
- ED50 ([2]; po): 3 µmol/kg
- ED50 [2, 12]: 0.048 µmol/kg
- Mot. act. (+/-) ([3]; sc): ++5-HT

SMILES: CCCN(CCC)C1COc2ccc3[nH]ccc3c2C1 (racemic) [(±)-21, 8-N,N-dipropylamino-8,9-dihydro-2H-pyrano-(3,2-e)-indol]
- ED50 [2, 12]: 3.1 µmol/kg
- ED50 [4]: 1 µmol/kg
- Mot. act. (+/-) ([3]; sc): +DA

SMILES: CN(C)C1CCc2ccc3[nH]cc(Br)c3c2C1 (stereo not drawn) [Example 12, 1-Bromo-6,7,8,9-tetrahydro-N,N-dimethyl-8-amino-3H-benz[e]indole]
- stability of the product [5]: unstable

SMILES: O=C1CC2(CCCC2)CC(=O)N1CCCCN1CCN(c2ncccn2)CC1 [Buspirone hydrochloride]
- dopamine receptor antagonism [6]: antagonizes dopamine receptors at the same dose it stimulates 5-HT1A receptors

SMILES: CCCN(CCC)C1CCc2ccc3[nH]ccc3c2C1 (racemic) [(±)-12b, 6,7,8,9-tetrahydro-N,N-dipropyl-3H-benz(e)indole-8-amine]
- ED50 [2, 12]: 0.1 µmol/kg
- ED50 [4]: 0.28 µmol/kg
- Mot. act. (+/-) ([3]; sc): DA + 5-HT

SMILES: CCCN(CCC)C1COc2ccc3[nH]cc(C=O)c3c2C1 (racemic) [(±)-22, 1-formyl-8-N,N-dipropylamino-8,9-dihydro-2H-pyrano-(3,2-e)indole]
- ED50 [2, 12]: 0.4 µmol/kg
- Mot. act. (+/-) ([3]; sc): +5-HT

SMILES: CN(C)[C@@H]1CCc2ccc3[nH]cc(C=O)c3c2C1 [(+)-13a, (+)-1-formyl-6,7,8,9-tetrahydro-N,N-dimethyl-3H-benz(e) indole-8-amine]
- ED50 [2, 12]: 1 µmol/kg
- Mot. act. (+/-) ([3]; sc): +5-HT
- IC50 [7]: 140 nM

SMILES: CN(C)C1CCc2ccc3[nH]cc(C=O)c3c2C1 (racemic) [(±)-13a, 1-Formyl-6,7,8,9-tetrahydro-N,N-dimethyl-3H-benz(e)indole-8-amine]
- ED50 ([2]; po): 7 µmol/kg
- ED50 [2, 12]: 4 µmol/kg
- ΔBP max ([8]; 2.0 μmol/kg i.v., (±) 13a): -12 ± 4 mm Hg
- ΔHR max ([8]; 2.0 μmol/kg i.v., (±) 13a): +35 ± 34 beats/min
- ΔHR max (minimal level of biphasic response) ([8]; 2.0 μmol/kg i.v., (±) 13a): -33 ± 23 beats/min
- duration ΔBP [8, 13]: 150 min
- ΔBP max [8, 13]: -60 ± 5 mm Hg
- Δtemp max [8, 13]: -0.2 ± 0.65 °C
- Δtemp max ([8]; 2.0 μmol/kg i.v., (±) 13a): -0.2 ± 0.40 °C
- ΔHR max [8, 14]: +55 ± 14 beats/min
- ΔBP max ([8]; 2.0 μmol/kg p.o.): -23 ± 2 mm Hg
- ΔHR max ([8]; 2.0 μmol/kg p.o.): +37 ± 44 beats/min
- Δtemp max ([8]; 2.0 μmol/kg p.o.): +1.2 ± 0 °C
- ΔHR max ([8]; 10.0 μmol/kg i.v., (±) 13a, biphasic, maximal level): +87 ± 18 beats/min
- ΔBP max [8, 15]: -3 ± 1 mm Hg
- ΔHR max [8, 15]: +70 ± 47 beats/min
- Δtemp max [8, 15]: -1.0 ± 0.15 °C
- duration ΔBP [8, 16]: > 90 min
- ΔBP max [8, 16]: -57 ± 4 mm Hg
- ΔHR max (minimal level of biphasic response) [8, 16]: -37 ± 3 beats/min
- Δtemp max [8, 16]: -0.7 ± 0.33 °C
- ΔHR max (minimal level of biphasic response) ([8]; 10.0 μmol/kg p.o.): -39 ± 18 beats/min
- ΔHR max [8, 17]: +24 ± 43 beats/min
- duration ΔBP [8, 18]: 75 min
- ΔBP max [8, 18]: -43 ± 22 mm Hg
- Δtemp max [8, 18]: +0.7 ± 0.32 °C
- bioavailability ([8]; 10 umol/kg, 10.0 μmol/kg p.o., from areas under the curves after po and iv administration, read-out: Bioavail): 48%
- Mot. act. (+/-) ([3]; po): (+)5-HT
- Mot. act. (+/-) ([3]; sc): (+)5-HT

SMILES: CCCN(CCC)C1CCc2cc3cc[nH]c3cc2C1 (stereo not drawn) [5,6,7,8-N,N-di-n-propyl-1H-benz(f)indole-7-amine]
- dopaminergic activity [9]: dopaminergically inactive

SMILES: CCCN(CCC)C1CCc2ccc3[nH]cc(C=O)c3c2C1 (racemic) [(±)-13b, 1-formyl-6,7,8,9-tetrahydro-N,N-dipropyl-3H-benz(e)indole-8-amine]
- ED50 [2, 12]: 0.06 µmol/kg
- duration ΔBP [8, 13]: 90 min
- ΔBP max [8, 13]: -35 ± 3 mm Hg
- Δtemp max [8, 13]: -1.5 ± 0.3 °C
- ΔBP max ([8]; 2.0 μmol/kg i.v., (±) 13b): +14 ± 1 mm Hg
- ΔHR max ([8]; 2.0 μmol/kg i.v., (±) 13b): -70 ± 15 beats/min
- Δtemp max ([8]; 2.0 μmol/kg i.v., (±) 13b): -1.6 ± 0.2 °C
- ΔHR max [8, 14]: +110 ± 10 beats/min
- ΔHR max [8, 17]: +78 ± 11 beats/min
- duration ΔBP [8, 18]: > 120 min
- ΔBP max [8, 18]: -55 ± 5 mm Hg
- Δtemp max [8, 18]: -1.0 ± 0.3 °C
- duration ΔBP ([8]; 10.0 μmol/kg p.o., (±) 13b): 60 min
- ΔBP max ([8]; 10.0 μmol/kg p.o., (±) 13b): +28 ± 6 mm Hg
- ΔHR max ([8]; 10.0 μmol/kg p.o., (±) 13b): +70 ± 30 beats/min
- Δtemp max ([8]; 10.0 μmol/kg p.o., (±) 13b): -0.8 ± 0.4 °C
- bioavailability ([8]; po): 36%
- Mot. act. (+/-) ([3]; sc): +5-HT
- IC50 [7]: 3700 nM

SMILES: CN(C)[C@@H]1CCc2ccc3[nH]ccc3c2C1 [R-6,7,8,9-tetrahydro-N,N-dimethyl-3H-benz(e)indole-8-amine]
- 5-HT1A binding affinity [10]: high affinity

SMILES: CC1(C)CC(=O)N(CCCCN2CCN(c3ncccn3)CC2)C(=O)C1 [gepirone]
- dopamine receptor antagonism [6]: has dopamine antagonist properties

SMILES: CN(C)C1CCc2ccc3[nH]ccc3c2C1 (racemic) [6,7,8,9-tetrahydro-N,N-dimethyl-3H-benz(e)indole-8-amine]
- 5-HT1A binding affinity [10]: high affinity
- 5-HT1A agonist properties in vivo [11]: exhibits 5-HT1A agonist properties in vivo
